# Assay results as given in patent US20040067959A1, “Morphinoid derivatives as delta-opioid agonists and antagonists” (priority 2000, published 2004).
# Experiments:
# [1] = biological target: T1, human delta opioid receptors (Homo sapiens, UniProt P41143); test: radioligand binding assay, cloned human delta opioid receptor, [3H]-DADLE
# T1 construct: expressed in transfected cells; membranes
# Procedure: (§1) The activity of the compounds of the present invention as selective delta ligands is determined in radioligand binding assays using cloned human delta, mu and kappa opioid receptors stably expressed in cell lines as described below.
# (§2) CHO cells were subjected to stable transfection with cDNA encoding the human delta and mu opioid receptors. Clones were grown in suspension culture in serum free media. Selection was performed by growth in the absence of nucleotides.
# (§3) Membranes were prepared as previously described (J. Med. Chem. 1997, 40 3192). The binding of the preferential delta ligand [^3H]-[D-Ala^2,D-Leu^5]-enkephalin (DADLE) was evaluated at its KD concentration (0.7 nM). The binding of the mu ligand [^3H]-DAMGO (Eur. J. Pharmacol., 1989, 166, 213) and of the kappa ligand [^3H]-U69593 (Excerpta Medica, 1990, 211) were carried out at 0.5 nM. Non specific binding was determined in the presence of 10 uM of naloxone. Binding data were expressed as percentage of inhibition and fitted the following equation: f(x)=100·X/(IC50+X) where X is the cold drug concentration value. The IC50 values obtained were used to calculate the inhibitory constants (Ki) according to the Cheng and Prusoff relation (Biochem. Pharmacol., 1973, 22, 3099).
# [2] = biological target: T2, human mu opioid receptors (Homo sapiens, UniProt P35372); test: radioligand binding assay, cloned human mu opioid receptor, [3H]-DAMGO; conditions: ratio of Ki at human mu ([3H]-DAMGO 0.5 nM) to Ki at human delta
# T2 construct: expressed in transfected cells; membranes
# T2 sequence (P35372 whole entry): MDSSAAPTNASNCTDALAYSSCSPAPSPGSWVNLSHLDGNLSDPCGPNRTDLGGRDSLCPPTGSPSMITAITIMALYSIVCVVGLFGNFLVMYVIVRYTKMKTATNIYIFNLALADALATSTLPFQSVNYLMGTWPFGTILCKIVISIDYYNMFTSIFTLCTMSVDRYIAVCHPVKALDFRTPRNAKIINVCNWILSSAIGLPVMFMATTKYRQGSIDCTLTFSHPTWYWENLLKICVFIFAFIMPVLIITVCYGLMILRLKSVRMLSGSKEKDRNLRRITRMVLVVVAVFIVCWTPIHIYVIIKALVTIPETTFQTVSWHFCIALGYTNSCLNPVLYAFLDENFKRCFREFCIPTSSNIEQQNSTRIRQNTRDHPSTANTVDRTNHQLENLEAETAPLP
# Procedure: as §1, §2, §3
# T1 sequence (P41143 whole entry): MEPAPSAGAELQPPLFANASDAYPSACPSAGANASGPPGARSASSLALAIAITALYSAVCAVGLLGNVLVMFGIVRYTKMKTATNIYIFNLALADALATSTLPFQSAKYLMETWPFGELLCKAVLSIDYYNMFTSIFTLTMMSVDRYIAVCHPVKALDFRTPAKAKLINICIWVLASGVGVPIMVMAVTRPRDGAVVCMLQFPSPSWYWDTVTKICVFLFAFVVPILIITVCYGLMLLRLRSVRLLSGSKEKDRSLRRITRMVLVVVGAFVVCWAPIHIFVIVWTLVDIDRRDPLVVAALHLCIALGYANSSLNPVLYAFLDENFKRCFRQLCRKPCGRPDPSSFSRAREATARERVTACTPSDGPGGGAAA
SMILES,Ki [1] [nM],Ki mu/Ki delta [2]
COc1ccc(N2CCN(C(=O)c3[nH]c4c(c3C)C[C@H]3[C@H]5Cc6ccc(OC)c7c6[C@@]3(CCN5C)[C@H]4O7)CC2)c(OC)c1 [Example 23],0.6,1010
COc1ccc2c3c1O[C@H]1c4[nH]c(C(=O)N5CCN(c6ccc(C)cc6C)CC5)c(C)c4C[C@H]4[C@@H](C2)N(C)CC[C@]314 [Example 6],1,437
